Results: patent US5932742A, “Arylsulfonylimidazolone derivatives as an antitumor agent” (priority 1996, dated 1999)
Values after ≈ are worked out from the molar mass of the structure shown. Where two headings read alike, the source gives them in different places.

Assays:
Assay type in all cases: cell-based
[1] = system: SK-OV-3 (ATCC HTB 77): human ovarian adenocarcinoma; assay: In vitro antitumor activity, MTT assay, SK-OV-3; conditions: Homo sapiens
Procedure: (§1) In vitro antitumor activity against human tumor cell lines
(§2) In vitro antitumor activity of the compounds according to the present invention was determined by MTT assay method against the following human tumor cell lines:
SK-OV-3 (ATCC HTB 77): human ovarian adenocarcinoma
(§3) In this test, the known antineoplastic compounds, Doxorubicin and Sulofenur, were used as the comparative agents.
(§4) Each of the tumor cells was cultured in RPMI 1640 media containing 10% fetal bovine serum, 100 IU/ml penicillin and 100 μg/ml streptomycin, and then periodically subcultured once or twice per week in trypsin-EDTA solution containing 0.05% trypsin and 0.53mM EDTA.4Na. The human tumor cell line thus obtained (10,000cells/100 μl) was plated on 96-well microplate and then cultured for 24 hrs at 37° C. in a 5% CO2 incubator. Test compound was dissolved in DMSO, sterilized with 0.22 μm PVDF filter, and then serially 5-fold diluted from 40 μg/ml to 0.00256μg/ml. 100 μl of the sample solution thus prepared and RPMI 1640 medium only (control group) were added to 96-well microplate containing the human tumor cell, respectively. The final concentration of the test compound was in the range from 20 μg/ml to 0.00128 μg/ml and the concentration of DMSO was below 0.5%. The cells were cultured for 48 hrs at 37° C. in a 5% CO2 incubator. MTT(3-(4,5-Dimethylthiazole-2-yl)-e,5-diphenyltetrazoliumbromide) was dissolved in physiological saline in a concentration of 2 mg/ml and the resulting solution was filtered through 0.22 μm PTFE filter. 25 μl of MTT solution thus prepared was added to each well of 96-well microplate and incubated for additional 4 hrs at 37° C. in a 5% CO2 incubator. Then, the content of microplate was centrifuged at 1000 rpm for 10 min, and supernatant was removed by flicking. The formazan formed from MTT by mitochondrial succinate dehydrogenase was dissolved in 100 μl of DMSO. The absorbance of each well was measured at 540nm by micro ELISA reader and the cytotoxicity was calculated by dividing the absorbance of test group by the absorbance of control group. After the calculated cytotoxicity (%) was plotted, the concentration of 50% tumor growth inhibition concentration (IC50) was estimated by Linear-Regression method.

[2] = system: Colo205 (ATCC CCL 222): human colon adenocarcinoma; assay: In vitro antitumor activity, MTT assay, Colo205; conditions: Homo sapiens
Procedure: as §1, §2
Colo205 (ATCC CCL 222): human colon adenocarcinoma
as §3, §4

[3] = system: A549 (ATCC CCL 185): human lung carcinoma; assay: In vitro antitumor activity, MTT assay, A549; conditions: Homo sapiens, A549, 48 h
Procedure: as §1, §2
A549 (ATCC CCL 185): human lung carcinoma
as §3, §4

[4] = system: K562 (ATCC CCL 243): human chronic myelogenous leukemia; assay: In vitro antitumor activity, MTT assay, K562; conditions: Homo sapiens, K562, 48 h
Procedure: as §1, §2
K562 (ATCC CCL 243): human chronic myelogenous leukemia
as §3, §4

[5] = COLO 205, Table 1, 48 hrs, read-out: IC50 (Colo205)
[6] = COLO 205, Table 3, 48 hrs, read-out: IC50 (Col205)

Compound	IC50 ([1]; SK-OV-3, Table 4, 48 hrs) [µg/mL]	IC50 ([4]; Table 4, read-out: IC50 (K562)) [µg/mL]	IC50 ([3]; Table 4) [µg/mL]	also measured
CCCNC(=O)N1CCc2cc(S(=O)(=O)n3cc(-c4ccccc4)[nH]c3=O)ccc21 [Example 4, 4-phenyl-1-(N-propylcarbamoylindoline-5-sulfonyl)-2-imidazolone]				IC50 ([1]; SK-OV-3, Table 1, 48 hrs): < 0.00128 µg/mL; IC50 [2, 5]: < 0.00128 µg/mL; IC50 ([3]; Table 1): 0.052 µg/mL (≈ 0.122 µM)
CC(C)NC(=O)N1CCc2cc(S(=O)(=O)n3cc(-c4ccccc4)[nH]c3=O)ccc21 [Example 6, 4-phenyl-1-(N-isopropylcarbamoylindoline-5-sulfonyl)-2-imidazolone]				IC50 ([1]; SK-OV-3, Table 1, 48 hrs): < 0.00128 µg/mL; IC50 [2, 5]: < 0.00128 µg/mL; IC50 ([3]; Table 1): < 0.00128 µg/mL
CCCNC(=O)N1CCc2cc(S(=O)(=O)N3CC(c4ccccc4)NC3=O)ccc21 (stereo not shown) [Example 30, 4-phenyl-1-(N-propylcarbamoylindoline-5-sulfonyl)-4,5-dihydro-2-imidazolone]				IC50 ([1]; SK-OV-3, Table 3, 48 hrs): 0.261 µg/mL (≈ 0.609 µM); IC50 [2, 6]: 0.254 µg/mL (≈ 0.593 µM); IC50 ([4]; Table 3, read-out: IC50 (K562)): 0.488 µg/mL (≈ 1.14 µM); IC50 ([3]; Table 3): 0.103 µg/mL (≈ 0.24 µM)
C=CCNC(=O)N1CCc2cc(S(=O)(=O)N3CC(c4ccccc4)NC3=O)ccc21 (stereo not shown) [Example 32, 4-phenyl-1-(N-allylcarbamoylindoline-5-sulfonyl)-4,5-dihydro-2-imidazolone]				IC50 ([1]; SK-OV-3, Table 3, 48 hrs): 0.685 µg/mL (≈ 1.61 µM); IC50 [2, 6]: 7.1 µg/mL (≈ 16.6 µM); IC50 ([3]; Table 3): 0.042 µg/mL (≈ 0.0985 µM)
CCCNC(=S)N1CCc2cc(S(=O)(=O)N3CC(c4ccccc4)NC3=O)ccc21 (stereo not shown) [Example 40, 4-phenyl-1-(N-propylthiocarbamoylindoline-5-sulfonyl)-4,5-dihydro-2-imidazolone]				IC50 ([1]; SK-OV-3, Table 3, 48 hrs): 3.66 µg/mL (≈ 8.24 µM); IC50 ([4]; Table 3, read-out: IC50 (K562)): 0.337 µg/mL (≈ 0.758 µM); IC50 ([3]; Table 3): 0.245 µg/mL (≈ 0.551 µM)
COc1ccc(NC(=S)N2CCc3cc(S(=O)(=O)N4CC(c5ccccc5)NC4=O)ccc32)cc1 (stereo not shown) [Example 43, 4-phenyl-1-[N-(4-methoxyphenyl)thiocarbamoylindoline-5-sulfonyl]-4,5-dihydro-2-imidazolone]				IC50 ([1]; SK-OV-3, Table 3, 48 hrs): 1.03 µg/mL (≈ 2.03 µM); IC50 ([4]; Table 3, read-out: IC50 (K562)): 1.28 µg/mL (≈ 2.52 µM); IC50 ([3]; Table 3): 1.27 µg/mL (≈ 2.49 µM)
O=C(c1ccccc1)N1CCc2cc(S(=O)(=O)N3CC(c4ccccc4)NC3=O)ccc21 (stereo not shown) [Example 47, 4-phenyl-1-(N-benzoylindoline-5-sulfonyl)-4,5-dihydro-2-imidazolone]	0.26 (≈ 0.581 µM)	1.84 (≈ 4.12 µM)	0.196 (≈ 0.438 µM)	
Cc1ccc(C(=O)N2CCc3cc(S(=O)(=O)N4CC(c5ccccc5)NC4=O)ccc32)cc1 (stereo not shown) [Example 48, 4-phenyl-1-[N-(4-methylbenzoyl)indoline-5-sulfonyl]-4,5-dihydro-2-imidazolone]	> 20	2.4 (≈ 5.2 µM)	1.74 (≈ 3.76 µM)	
O=C(c1ccccc1O)N1CCc2cc(S(=O)(=O)N3CC(c4ccccc4)NC3=O)ccc21 (stereo not shown) [Example 49, 4-phenyl-1-[N-(2-hydroxybenzoyl)indoline-5-sulfonyl]-4,5-dihydro-2-imidazolone]	0.591 (≈ 1.28 µM)	5.71 (≈ 12.3 µM)	0.638 (≈ 1.38 µM)	
COc1ccc(C(=O)N2CCc3cc(S(=O)(=O)N4CC(c5ccccc5)NC4=O)ccc32)cc1 (stereo not shown) [Example 50, 4-phenyl-1-[N-(4-methoxybenzoyl)indoline-5-sulfonyl]-4,5-dihydro-2-imidazolone]	1.37 (≈ 2.87 µM)	2.19 (≈ 4.58 µM)	1.56 (≈ 3.28 µM)	
COc1ccc(C(=O)N2CCc3cc(S(=O)(=O)N4CC(c5ccccc5)NC4=O)ccc32)cc1OC (stereo not shown) [Example 51, 4-phenyl-1-[N-(3,4-dimethoxybenzoyl)indoline-5-sulfonyl]-4,5-dihydro-2-imidazolone]	12.1 (≈ 23.9 µM)	0.218 (≈ 0.429 µM)	1.65 (≈ 3.25 µM)	
CCOc1ccc(C(=O)N2CCc3cc(S(=O)(=O)N4CC(c5ccccc5)NC4=O)ccc32)cc1 (stereo not shown) [Example 52, 4-phenyl-1-[N-(4-ethoxybenzoyl)indoline-5-sulfonyl]-4,5-dihydro-2-imidazolone]	2.22 (≈ 4.51 µM)		0.101 (≈ 0.205 µM)	
O=C(c1ccc(Cl)cc1)N1CCc2cc(S(=O)(=O)N3CC(c4ccccc4)NC3=O)ccc21 (stereo not shown) [Example 53, 4-phenyl-1-[N-(4-chlorobenzoyl)indoline-5-sulfonyl]-4,5-dihydro-2-imidazolone]	5.97 (≈ 12.4 µM)	0.594 (≈ 1.23 µM)	0.774 (≈ 1.61 µM)	
O=C(c1ccc(F)cc1)N1CCc2cc(S(=O)(=O)N3CC(c4ccccc4)NC3=O)ccc21 (stereo not shown) [Example 54, 4-phenyl-1-[N-(4-fluorobenzoyl)indoline-5-sulfonyl]-4,5-dihydro-2-imidazolone]	2.33 (≈ 5 µM)	3.64 (≈ 7.83 µM)	0.59 (≈ 1.27 µM)	
O=C(c1ccc([N+](=O)[O-])cc1)N1CCc2cc(S(=O)(=O)N3CC(c4ccccc4)NC3=O)ccc21 (stereo not shown) [Example 55, 4-phenyl-1-[N-(4-nitrobenzoyl)indoline-5-sulfonyl]-4,5-dihydro-2-imidazolone]	2.09 (≈ 4.24 µM)	8.88 (≈ 18 µM)	1.7 (≈ 3.45 µM)	
N#Cc1ccc(C(=O)N2CCc3cc(S(=O)(=O)N4CC(c5ccccc5)NC4=O)ccc32)cc1 (stereo not shown) [Example 56, 4-phenyl-1-[N-(4-cyanobenzoyl)indoline-5-sulfonyl]-4,5-dihydro-2-imidazolone]	0.968 (≈ 2.05 µM)	4.96 (≈ 10.5 µM)	1.59 (≈ 3.36 µM)	
O=C(c1cccc(Cl)c1)N1CCc2cc(S(=O)(=O)N3CC(c4ccccc4)NC3=O)ccc21 (stereo not shown) [Example 58, 4-phenyl-1-[N-(3-chlorobenzoyl)indoline-5-sulfonyl]-4,5-dihydro-2-imidazolone]	2.6 (≈ 5.39 µM)	7.04 (≈ 14.6 µM)	1.62 (≈ 3.36 µM)	
O=C(c1cc(Cl)cc(Cl)c1)N1CCc2cc(S(=O)(=O)N3CC(c4ccccc4)NC3=O)ccc21 (stereo not shown) [Example 59, 4-phenyl-1-[N-(3,5-dichlorobenzoyl)indoline-5-sulfonyl]-4,5-dihydro-2-imidazolone]	16.5 (≈ 32 µM)	1.88 (≈ 3.64 µM)	2.02 (≈ 3.92 µM)	
O=C(c1cccc(F)c1)N1CCc2cc(S(=O)(=O)N3CC(c4ccccc4)NC3=O)ccc21 (stereo not shown) [Example 60, 4-phenyl-1-[N-(3-fluorobenzoyl)indoline-5-sulfonyl]-4,5-dihydro-2-imidazolone]	8.51 (≈ 18.3 µM)	0.619 (≈ 1.33 µM)	0.328 (≈ 0.705 µM)	
O=C(c1ccc(F)cc1F)N1CCc2cc(S(=O)(=O)N3CC(c4ccccc4)NC3=O)ccc21 (stereo not shown) [Example 61, 4-phenyl-1-[N-(2,4-difluorobenzoyl)indoline-5-sulfonyl]-4,5-dihydro-2-imidazolone]	1.52 (≈ 3.14 µM)	5.66 (≈ 11.7 µM)	1.94 (≈ 4.01 µM)	
O=C(c1cccc(C(F)(F)F)c1)N1CCc2cc(S(=O)(=O)N3CC(c4ccccc4)NC3=O)ccc21 (stereo not shown) [Example 62, 4-phenyl-1-[N-(3-trifluoromethylbenzoyl)indoline-5-sulfonyl]-4,5-dihydro-2-imidazolone]	11.8 (≈ 22.8 µM)	1.37 (≈ 2.65 µM)	2.18 (≈ 4.24 µM)	
O=C(c1cccc(OC(F)(F)F)c1)N1CCc2cc(S(=O)(=O)N3CC(c4ccccc4)NC3=O)ccc21 (stereo not shown) [Example 63, 4-phenyl-1-[N-(3-trifluoromethoxybenzoyl)indoline-5-sulfonyl]-4,5-dihydro-2-imidazolone]	11.3 (≈ 21.4 µM)		2.74 (≈ 5.15 µM)	
O=C(c1ccc(OC(F)(F)F)cc1)N1CCc2cc(S(=O)(=O)N3CC(c4ccccc4)NC3=O)ccc21 (stereo not shown) [Example 64, 4-phenyl-1-[N-(4-trifluoromethoxybenzoyl)indoline-5-sulfonyl]-4,5-dihydro-2-imidazolone]	2.96 (≈ 5.56 µM)		0.695 (≈ 1.31 µM)	
